{"source": "patent US20040230033A1", "about": "“Substrate-derived affinity labels, and uses thereof” (priority 2003, published 2004)", "key": {"[1]": {"target": "T1, SrtAΔN (Staphylococcus aureus, UniProt Q2FV99)", "T1 construct": "The region of the SrtA gene lacking the N-terminal membrane domain was then PCR-amplified; made in house; host or cells: E. coli HMS174(DE3)pLysS", "test": "biochemical", "format": "biochemical, S. aureus", "conditions": "for k1 (first-order rate constant ki for covalent modification of SrtAΔN) / ki/Ki (specificity constant): 37° C., means ± S.E.M., four determinations; for k1 (first-order rate constant ki for covalent modification of SrtAΔN): pH 7.5, inhibitor 25-200 μM; for ki/Ki (specificity constant): pH 7.5", "description": "Using methods described previously, SrtAΔN activity was measured with the internally quenched substrate 4([4-(dimethylamino)phenyl]azo)-benzoyl(Dabcyl)-[…][(2-aminoethyl)-amino]napthalenel-sulphonyl (Edans) (prepared by standard Fmoc solid-phase synthesis) on a CytoFluor 4000® multi-well fluorimeter (PerSeptive Biosystems, Foster City, Calif., U.S.A.). All SrtAAN assays were performed at 37° C. (in triplicate) in 50 mM Tris/HCI (pH 7.5) containing 150 mM NaCl, 5 mM CaCl2, 5 mM NH,-Gly3 and 5 mM dithiothreitol (SrtA buffer). Wells contained approx. 10 pM of purified SrtAoN and 50 pM of substrate, in a final volume of 200, ul. The Km and kcat values for the SrtAΔN-catalysed cleavage of the internally quenched sub-strate were calculated by fitting the data points directly into the Michaelis-Menten equation for substrate hydrolysis, using GraFit® software (Erithacus Software, Horley, Surrey, U.K.).\nData from the curves were fitted, using non-linear regression analysis, to the integrated rate equation [P]=PJ1-e “-Pp”). This equation represents a first-order rate process for the formation of product P as a function of time, where kapp is the apparent rate constant and P. represents the concentration of product at a time approaching infinity. Using five different concentrations for each inhibitor (25, 50, 100, 150 and 200/μM), the values kapp and P∞were determined and utilized to evaluate the apparent second-order rate constant A for the inactivation of SrtAΔN in the presence of the substrate. The individual kinetic constants ki and Ki were then evaluated for both inhibitors from a plot of 1/A versus inhibitor concentration [I] [28], and the specificity constant k;/K; was calculated.\nData from the progress curves for SrtΔN-catalysed hydrolysis of the internally quenched substrate Dabcyl-[…]Edans in the presence of five different concentrations of inhibitors I and II (25, 50, 100, 150 and 200, W) were fitted by non-linear regression analysis to the integrated rate equation [P]=P∞(1-e^−kaPPt). The P∞. and kapp values were determined and used to evaluate the apparent second-order rate constant A for inactivation of SrtΔN in the presence of substrate. The individual kinetic constants k and K were then evaluated from a plot of 1/A versus inhibitor concentration [I], and the specificity constant for each inhibitor (kiKi) calculated. Values represent the means ±S.E.M. for four determinations."}, "[2]": {"target": "T1, SrtAΔN", "test": "Affinity labelling of recombinant SrtAΔN, Western blot with streptavidin-alkaline phosphatase", "format": "binding, S. aureus", "protocol": "(§1) To detect the affinity-labelled recombinant and wild-type SrtA, samples were analysed by Western-blot analysis [19,24-26]. Briefly, samples were treated with denaturing treatment buffer and the proteins separated by SDS/PAGE on 4-20% (w/v) linear gradient gels, followed by semi-dry transfer to a nitrocellulose membrane (Schleicher and Schiill, Dassel, Germany). After transfer, non-specific binding sites were quenched with a 3% (w/v) solution of BSA in 20 mM Tris/HCI (pH 7.4), containing 150 mM NaCl. To detect the biotin group, the membrane was incubated with a streptavidin-alkaline phosphatase conjugate (1:500). […] Bound antibody was detected with a goat anti-rabbit IgG alkaline phosphatase conjugate (1:20000).\nIn lane 3, the bound fraction eluted from the column with 10 mM imidazole (purified SrtAΔN) was also analysed."}, "[3]": {"target": "recombinant sortase SrtAΔN (His6-tagged) (Staphylococcus aureus (Oxford strain)) (UniProt Q2FV99)"}, "[4]": {"target": "T2, cathepsin B (Homo sapiens, UniProt P07858)", "conditions": "reference [30]; cited from earlier work"}, "[5]": {"target": "T2, cathepsin B", "conditions": "cathepsin B/Cbz-Phe-Phe-CH2Cl versus SrtAΔN/II"}, "[6]": {"target": "SrtB (Staphylococcus aureus, UniProt Q2FZE3)", "format": "binding", "conditions": "crude S. aureus extracts, iron not added to culture media", "protocol": "as §1"}, "[7]": {"target": "T3, wild-type SrtA (Staphylococcus aureus, UniProt Q2FV99)", "T3 construct": "endogenous in cells; host or cells: S. aureus Oxford strain (ATCC 9144)", "test": "Affinity labelling of wild-type SrtA in crude S. aureus cell lysates, Western blot", "format": "binding", "conditions": "lysate probed with III; additional 24 kDa band, confirmed with antiserum", "description": "For the disclosure of wild-type SrtA in S. aureus, a 50 ml overnight culture of the organism in LB broth was prepared. The bacterial cells were centrifuged at 3000 g for 15 min and the resulting pellet was washed in 5 ml of SrtA buffer. The washed bacteria were then resuspended in 1 ml of SrtA buffer containing 0.1 g of glass beads. The suspension was vortex-mixed continuously for 5 min followed by centrifugation at 1500 g for 15 min to remove the beads and unbroken cells. To 100 pl of purified SrtAΔN and the crude bacterial preparations, the inhibitor biotin-Ahx-Leu-Pro-Ala-Thr-CHN2 (III) was added (final concentration 50 pM) before incubation at 37° C. for 30 min.\nTo detect the affinity-labelled recombinant and wild-type SrtA, samples were analysed by Western-blot analysis. […] Bound antibody was detected with a goat anti-rabbit IgG alkaline phosphatase conjugate (1:20000).\nWestern-blotting experiments were performed with biotinAhx-Leu-Pro-Ala-Thr-CHN2 (III) to detect the presence of wildtype SrtA in crude cell lysates from S. aureus (Oxford strain; see FIG. 8B). […] In the duplicate lanes 3 and 4, which contained cell lysate “probed” with biotin-Ahx-Leu-Pro-Ala-Thr-CHN2 (III), the BCCP protein was detected along with an additional protein of apparent molecular mass 24 kDa. […]"}}, "note": "Values joined by “and” are separate entries in the source; they are usually repeats but may differ in a detail not shown here. Identical values can stand only once. Where a SMILES comes first, the peptide text is derived from it. The star is where a group is joined. Biotin = O=C1N[C@H]2[C@H](CS[C@H]2CCCCC(=O)*)N1; Cbz = O=C(OCc1ccccc1)*; CHN2 = [N-]=[N+]=C*; Ahx = NCCCCCC(=O)O; CH2Cl = ClC*", "data": [{"compound": "CC(C)C[C@H](NC(=O)OCc1ccccc1)C(=O)N1CCC[C@H]1C(=O)N[C@@H](C)C(=O)N[C@H](C(=O)C=[N+]=[N-])[C@@H](C)O", "note": "[Inhibitor I, Cbz-Leu-Pro-Ala-Thr-CHN2] (Cbz-LPAT-CHN2)", "values": [{"measurement": "Ki", "setting": "[1]", "value": 0.22, "unit": "µM"}, {"measurement": "k1 (first-order rate constant ki for covalent modification of SrtAΔN)", "setting": "[1]", "value": "5.8×10^−3 min^−1 and 5.8 ± 0.6 × 10^−3 min^−1"}, {"measurement": "ki/Ki (specificity constant)", "setting": "[1]", "value": "2.2×10^4 M^−1 − min^−1 and 2.2 ± 0.2 × 10^4 M^−1 − min^−1"}]}, {"compound": "CC(C)C[C@H](NC(=O)OCc1ccccc1)C(=O)N1CCC[C@H]1C(=O)N[C@@H](C)C(=O)N[C@H](C(=O)CCl)[C@@H](C)O", "note": "[Inhibitor II, Cbz-Leu-Pro-Ala-Thr-CH2Cl] (Cbz-LPAT-CH2Cl)", "values": [{"measurement": "Ki", "setting": "[1]", "value": 0.21, "unit": "µM"}, {"measurement": "k1 (first-order rate constant ki for covalent modification of SrtAΔN)", "setting": "[1]", "value": "1.1×10^−2 min^−1 and 1.1 ± 0.1 × 10^−2 min^−1"}, {"measurement": "ki/Ki (specificity constant)", "setting": "[1]", "value": "5.3×10^4 M^−1 − min^−1 and 5.3 ± 0.6 × 10^4 M^−1 − min^−1"}, {"measurement": "covalently modifies SrtAΔN more rapidly than peptidyl-diazomethane I (by ki)", "setting": "[1]; II versus I", "value": "approx. 2 fold"}, {"measurement": "inactivates SrtAΔN more rapidly than analogous diazomethane sequence I (by specificity constants)", "setting": "[1]; II versus I", "value": "approx. 2 fold"}]}, {"compound": "O=C(O)c1cc[c]([Hg][OH])cc1", "note": "[pHMB, reference compound]", "values": [{"measurement": "effect of pre-treatment on SrtAΔN labelling by III", "setting": "[2]; purified SrtAΔN pre-treated with thiol-directed inhibitor before probing with III", "value": "complete diminution of SrtAΔN labelling"}]}, {"compound": "Cbz-Leu-Pro-Ala-Thr-CH2Cl (II), peptidyl-chloromethane inhibitor (peptide)", "values": [{"measurement": "ki (first-order rate constant of inactivation)", "setting": "[3]", "value": 0.011, "unit": "min⁻¹"}, {"measurement": "ki/Ki (specificity constant)", "setting": "[3]", "value": 883, "unit": "M⁻¹ s⁻¹"}]}, {"compound": "Cbz-Leu-Pro-Ala-Thr-CHN2 (I), peptidyl-diazomethane inhibitor (peptide)", "values": [{"measurement": "ki (first-order rate constant of inactivation)", "setting": "[3]", "value": 0.0058, "unit": "min⁻¹"}, {"measurement": "ki/Ki (specificity constant)", "setting": "[3]", "value": 367, "unit": "M⁻¹ s⁻¹"}]}, {"compound": "Cbz-Phe-Phe-CH,Cl", "values": [{"measurement": "ki for alkylation of the active-site cysteine residue of cathepsin B", "setting": "[4]", "value": 12.5, "unit": "min⁻¹"}, {"measurement": "ki greater than irreversible modification of SrtAΔN by peptidyl-chloromethane II", "setting": "[5]", "value": "approx. 1000 fold"}]}, {"compound": "{Biotin-Ahx}-LPAT-CHN2 [Inhibitor III]", "values": [{"measurement": "selectivity of labelling, SrtA versus SrtB", "setting": "[6]", "value": "selectively disclosed wild-type SrtA, but not SrtB"}, {"measurement": "nature of binding of biotinylated inhibitor to SrtAΔN", "setting": "[2]; 50 μM, 37° C., 30 min, approx. 30 kDa band labelled in crude E. coli lysate and purified fraction", "value": "active-site-directed"}, {"measurement": "detection of wild-type SrtA in crude S. aureus lysate", "setting": "[7]", "value": "affinity-labelled SrtA"}]}]}
